In BigSolDB 2.1:

Conditions: 298.2 K

O=C(c1ccccc1)c1ccc(O)cc1O
Conditions	solubility (mole fraction)
in 2-ethoxyethanol	0.0308
in 2-isopropoxyethanol	0.0333
in chlorobenzene	0.0044
in cyclohexane	5.07e-05
in diisopropyl ether	0.00744
in ethylbenzene	0.00408
in isooctane	3.31e-05
in m-xylene	0.00415
in methylcyclohexane	6.92e-05
in n-butanol	0.0109
in n-heptane	3.82e-05
in n-heptanol	0.018
in n-hexane	3.26e-05
in n-hexanol	0.0161
in n-octane	4.43e-05
in n-octanol	0.0183
in n-pentanol	0.0125
in o-xylene	0.00429
in p-xylene	0.00448
in sec-butanol	0.0103
in toluene	0.00364
